Results as given in patent publication US20110092544A1, “FUNGICIDAL PYRIDINES” (E.I. DU PONT DE nemours and company, priority 2008, published 2011).

Experiments:
Type in all cases: in vivo
[1] = tested on: Erysiphe graminis f. sp. tritici; assay: Test A: wheat powdery mildew, preventive spray on wheat seedlings, visual disease rating
Text: (§1) General protocol for preparing test suspensions for Tests A-H: The test compounds were first dissolved in acetone in an amount equal to 3% of the final volume and then suspended at the desired concentration (in ppm) in acetone and purified water (50/50 mix) containing 250 ppm of the surfactant Trem® 014 (polyhydric alcohol esters). The resulting test suspensions were then used in tests A-H. Spraying a 200 ppm test suspension to the point of run-off on the test plants was the equivalent of a rate of 500 g/ha.
The test suspension was sprayed to the point of run-off on wheat seedlings. The following day the seedlings were inoculated with a spore dust of Erysiphe graminis f. sp. tritici (the causal agent of wheat powdery mildew) and incubated in a growth chamber at 20° C. for 8 days, after which time disease ratings were visually made.
(§2) Results for Tests A-H are given in Table A. In the table, a rating of 100 indicates 100% disease control and a rating of 0 indicates no disease control (relative to the controls). A dash (-) indicates no test results. All results are for compounds tested at 200 ppm except where the compound number is followed by “*” which indicates the compound was tested at 40 ppm.

[2] = tested on: Puccinia recondite f. sp. tritici; assay: Test B: wheat leaf rust, preventive spray on wheat seedlings, visual disease rating
Text: as §1
(§3) The test suspension was sprayed to the point of run-off on wheat seedlings. The following day the seedlings were inoculated with a spore suspension of Puccinia recondite f. sp. tritici (the causal agent of wheat leaf rust) and incubated in a saturated atmosphere at 20° C. for 24 h, and then moved to a growth chamber at 20° C. for 7 days, after which time disease ratings were visually made.
as §2

[3] = tested on: Septoria tritici; assay: Test C: wheat leaf blotch, preventive spray on wheat seedlings, visual disease rating
Text: as §1
as §3, with “Septoria” for “Puccinia recondite f. sp.”, “blotch)” for “rust)”, “48” for “24”, “and” for “and then”, “19 additional” for “7”
as §2

[4] = tested on: Septoria nodorum; assay: Test D: wheat glume blotch, preventive spray on wheat seedlings, visual disease rating
Text: as §1
as §3, with “Septoria nodorum” for “Puccinia recondite f. sp. tritici”, “glume blotch)” for “leaf rust)”, “48” for “24”
as §2

[5] = tested on: Alternaria solani; assay: Test E: tomato early blight, preventive spray on tomato seedlings, visual disease rating
Text: as §1
(§4) The test suspension was sprayed to the point of run-off on tomato seedlings. The following day the seedlings were inoculated with a spore suspension of Alternaria solani (the causal agent of tomato early blight) and incubated in a saturated atmosphere at 27° C. for 48 h, and then moved to a growth chamber at 20° C. for 5 days, after which time disease ratings were visually made.
as §2

[6] = tested on: Botrytis cinerea; assay: Test F: tomato botrytis, preventive spray on tomato seedlings, visual disease rating
Text: as §1
as §4, with “Botrytis cinerea” for “Alternaria solani”, “botrytis)” for “early blight)”, “in” for “in a”, “20°” for “27°”, “24°” for “20°”, “3 additional” for “5”
as §2

[7] = 40 ppm (compound number followed by *)
[8] = 200 ppm, 100 = 100% disease control, 0 = no control

Compound | Test A rating (% disease control) [1, 7] [%] | Test B rating (% disease control) [2, 7] [%] | Test C rating (% disease control) [3, 7] [%] | Test D rating (% disease control) [4, 7] [%] | Test E rating (% disease control) [5, 7] [%] | Test F rating (% disease control) [6, 7] [%] | Test A rating (% disease control) [1, 8] [%] | Test B rating (% disease control) [2, 8] [%] | Test C rating (% disease control) [3, 8] [%] | Test D rating (% disease control) [4, 8] [%] | Test E rating (% disease control) [5, 8] [%] | Test F rating (% disease control) [6, 8] [%]
C=C(C)c1cnc(CC)c(-c2ccccc2)c1-c1cc(OC)cc(OC)c1 [Compound 29] | 91 | 0 | 98 | 0 | 91 | 80 |  |  |  |  |  | 
COc1cc(OC)cc(-c2c(Cn3cncn3)cnc(C)c2-c2c(F)cc(F)cc2F)c1 [Compound 104] |  |  |  |  |  |  | 100 | 100 | 98 | 99 | 100 | 99
COc1cc(OC)cc(-c2c(C3CCCC3)cnc(C)c2-c2c(F)cccc2F)c1 [Compound 67] | 100 | 100 | 95 | 0 | 99 | 99 |  |  |  |  |  | 
COc1cc(OC)cc(-c2c(Cn3cc(C#N)cn3)cnc(C)c2-c2c(F)cc(F)cc2F)c1 [Compound 123] | 0 | 0 | 53 | 0 | 0 | 69 |  |  |  |  |  | 
COc1cc(OC)cc(-c2c(C(C)CO)cnc(C)c2-c2c(F)cc(OC)cc2F)c1 (stereo not drawn) [Compound 92] | 76 | 99 | 96 | 82 | 100 | 94 |  |  |  |  |  | 
COc1cc(OC)c(Cl)c(-c2c(-c3ccccc3F)cnc(C)c2-c2c(F)cc(F)cc2F)c1Cl [Compound 136] | 0 | 74 | 40 | 0 | 0 | 48 |  |  |  |  |  | 
COc1cc(OC)cc(-c2c(C)cnc(C)c2-c2c(F)cc(F)cc2F)c1 [Compound 129] | 99 | 100 | 99 | 60 | 66 | 99 |  |  |  |  |  | 
COc1cc(OC)c(Cl)c(-c2c(-c3ccccc3F)cnc(C)c2-c2ccc(F)cc2)c1 [Compound 126] | 90 | 100 | 99 | 100 | 97 | 100 |  |  |  |  |  | 
Cc1ncc(-c2ccccc2F)c(-c2cc(OC(F)F)cc(OC(F)F)c2)c1-c1ccc(F)cc1 [Compound 101] |  |  |  |  |  |  | 82 | 89 | 96 | 0 | 0 | 96
Cc1nc(C#N)c(C)c(-c2ccc(Cl)cc2)c1-c1c(F)cccc1F [Compound 143] | 99 | 97 | 100 | 0 | 97 | 28 |  |  |  |  |  | 
C=C(C)c1cnc(C)c(-c2ccc(OC)cc2)c1-c1cc(OC)cc(OC)c1 [Compound 64] |  |  |  |  |  |  | 85 | 99 | 95 | 90 | 100 | 99
CCC(C)c1cnc(C)c(-c2ccc(F)cc2)c1-c1cc(OC)cc(OC)c1 (stereo not drawn) [Compound 63] |  |  |  |  |  |  | 78 | 96 | 79 | 0 | 74 | 97
COc1cc(OC)cc(-c2c(C(C)=O)cnc(C)c2-c2c(F)ccc(F)c2F)c1 [Compound 68] |  |  |  |  |  |  | 100 | 99 | 88 | 0 | 99 | 99
COc1cc(OC)cc(-c2c(C3CCOCC3)cnc(C)c2-c2c(F)cc(F)cc2F)c1 [Compound 79] | 97 | 100 | 93 | 95 | 100 | 91 |  |  |  |  |  | 
COc1cc(OC)cc(-c2c(C(C)C#N)cnc(C)c2-c2c(F)cc(F)cc2F)c1 (stereo not drawn) [Compound 125] | 96 | 99 | 96 | 90 | 99 | 100 |  |  |  |  |  | 
COc1cc(OC)cc(-c2c(C=O)cnc(C)c2-c2c(F)cc(F)cc2F)c1 [Compound 112] | 96 | 80 | 93 | 0 | 9 | 96 |  |  |  |  |  | 
C=C(C)c1cnc(C)c(-c2c(F)cc(OC)cc2F)c1-c1cc(OC)cc(OC)c1 [Compound 74] |  |  |  |  |  |  | 100 | 100 | 98 | 100 | 100 | 98
COc1cc(OC)cc(-c2c(C(C)(C)O)cnc(C)c2-c2c(F)ccc(OC)c2F)c1 [Compound 106] |  |  |  |  |  |  | 96 | 100 | 98 | 0 | 99 | 98
COc1cc(OC)c(Cl)c(-c2c(CCl)cnc(C)c2-c2c(F)cc(F)cc2F)c1 [Compound 134] | 99 | 100 | 99 | 92 | 96 | 100 |  |  |  |  |  | 
COc1cc(OC)cc(-c2c(C(C)O)cnc(C)c2-c2c(F)ccc(OC)c2F)c1 (stereo not drawn) [Compound 116] | 94 | 89 | 95 | 0 | 99 | 99 |  |  |  |  |  | 
COc1ccc(-c2c(C)ncc(C(C)(O)CO)c2-c2cc(OC)cc(OC)c2)cc1 (single isomer, unassigned) [Compound 85] |  |  |  |  |  |  | 43 | 61 | 43 | 0 | 0 | 96
COc1ccc(-c2c(C)ncc(C(C)(O)CO)c2-c2cc(OC)cc(OC)c2)cc1 (single isomer, unassigned) [Compound 83] |  |  |  |  |  |  | 95 | 99 | 95 | 0 | 99 | 54
COc1cc(OC)cc(-c2c(-c3cccs3)cnc(C)c2-c2c(F)cc(F)cc2F)c1 [Compound 132] | 90 | 99 | 99 | 97 | 93 | 99 |  |  |  |  |  | 
